Measurements published in paper PMC3390344, “Antibacterial Activity and Mechanism of a Scorpion Venom Peptide Derivative In Vitro and In Vivo” (PLoS ONE, 2012).
Ends that are not written are not given here.

Tests used:
[1] = test system: B. thuringiensis AB92037; test: MIC, broth microdilution (CLSI); format: cell-based, Bacillus thuringiensis; settings: B. thuringiensis AB92037, Gram-positive, 96-well
Procedure: (§1) S. aureus AB94004, S. aureus ATCC 25923, E. coli AB94012, E. coli ATCC 25922, Pseudomonas aeruginosa AB93066, Bacillus thuringiensis AB92037, Bacillus subtilis AB91021, and Micrococcus luteus AB93113 were purchased from the China Center of Type Culture Collection (CCTCC).
(§2) The MIC was determined via a microdilution assay in 96-well microtiter plates according to the broth microdilution guideline of Clinical and Laboratory Standards Institute (CLSI).

[2] = test system: M. luteus AB93113; test: MIC, broth microdilution (CLSI); format: cell-based, Micrococcus luteus; settings: M. luteus AB93113, Gram-positive, 96-well
Procedure: as §1, §2

[3] = test system: methicillin-resistant S. aureus (MRSA) P1374; test: microbe, parasite or virus in culture; format: cell-based; settings: P1374, methicillin resistant (MRSA) clinical isolate; repeated at least three times
Procedure: (§3) Clinical isolates were obtained from the 302nd military hospital of Beijing, China, including penicillin-resistant S. aureus (PRSA) P1383, penicillin-resistant S. epidermidis (PRSE) P1389, methicillin-resistant S. aureus (MRSA) P1381, P1386 and P1374, methicillin-resistant coagulase-negative Staphylococcus (MRCNS) P1369, and penicillin-sensitive S. epidermidis (PSSE) P1111.
as §2

[4] = test system: methicillin-resistant S. aureus (MRSA) P1381; test: microbe, parasite or virus in culture; format: cell-based; settings: P1381, methicillin resistant (MRSA) clinical isolate; repeated at least three times
Procedure: as §3, §2

[5] = test system: methicillin-resistant S. aureus (MRSA) P1386; test: microbe, parasite or virus in culture; format: cell-based; settings: P1386, methicillin resistant (MRSA) clinical isolate; repeated at least three times
Procedure: as §3, §2

[6] = test system: penicillin-resistant S. aureus (PRSA) P1383; test: microbe, parasite or virus in culture; format: cell-based; settings: P1383, penicillin resistant (PRSA) clinical isolate; repeated at least three times
Procedure: as §3, §2

[7] = test system: penicillin-resistant S. epidermidis (PRSE) P1389; test: microbe, parasite or virus in culture; format: cell-based; settings: P1389, penicillin resistant (PRSE) clinical isolate; repeated at least three times
Procedure: as §3, §2

[8] = test system: penicillin-sensitive S. epidermidis (PSSE) P1111; test: microbe, parasite or virus in culture; format: cell-based; settings: P1111, penicillin sensitive (PSSE) clinical isolate; repeated at least three times
Procedure: as §3, §2

[9] = test system: human red blood cells; test: Hemolytic activity; format: cell-based; settings: 37 °C, 1 h, absorbance at 570 nm, positive control 0.1% Triton X-100, method of Käber modified by Achmarine
Procedure: Figure 1 Screening, antimicrobial and hemolytic activities of Kn2-7 in vitro. (A) Multiple alignments of Kn2-7 and its seven derivatives. (B) Predicted secondary structure of Kn2-7 and its seven derivatives. (C) Antibacterial activity screening of Kn2-7 and its seven derivative peptides. (D) Hemolytic activity of Kn2-7. The hemolytic activities of the Kn2-7 and BmKn2 peptides were estimated by monitoring the increase in the absorbance at 570 nm after incubating human red blood cells with different peptide concentrations at 37 °C for 1 h. The positive control was 0.1% Triton X-100, and 0.85% saline was used as a blank. […] It is read as >100 for BmKn2, Kn2-3 and Kn2-4, and as 100 for Kn2-1, Kn2-2, Kn2-5 and Kn2-6.
The hemolytic activities of Kn2-7 and BmKn2 peptides were tested against human red blood cells. HC50 values were obtained according to the method of Käber, modified by Achmarine. Saline solution at a concentration of 0.85% was used as the negative control, and 0.1% Triton X-100 was used as the positive control.

[10] = test system: E. coli AB94012; test: LTA and LPS competition binding assay (MIC); format: cell-based; settings: controls of the competition assay (Figure 7C): untreated peptide, or LTA / LPS alone
Procedure: To confirm the results of the BLI titrations, 250 µg/mL of Kn2-7 or BmKn2 was mixed with an equal volume of 1 mg/mL LTA or LPS. Then, the MICs of Kn2-7 or BmKn2 mixed with LTA against S. aureus and E. coli were measured. […] The MICs of Kn2-7 and BmKn2 treated with LTA against S. aureus were 25 and 12.5 µg/mL, respectively.
A total of 250 µg/mL of each peptide solution was mixed with an equal volume of 1 mg/mL of the LTA or LPS solution. Then, the MICs of BmKn2 and Kn2-7 treated with LTA or LPS against S. aureus AB94004 and E. coli AB94012 were measured.

[11] = test system: S. aureus; test: S. aureus mouse skin abrasion and infection model; format: in vivo, mouse (BALB/c)
Procedure: Female BALB/c mice weighing 18–20 g were purchased from the Hubei Research Center of Laboratory Animals. All animal studies were approved by the Institutional Animal Care and Use Committee of Wuhan University.
Kn2-7 or BmKn2 was prepared in gel form in 0.5% hydroxypropylcellulose to a final concentration of 5 mg/mL.
Mice were injected with 150 mg/kg of cyclophosphamide 4 days prior to infection. Subsequently, the mice were injected with 100 mg/kg of cyclophosphamide 1 day prior to infection. After being anesthetized, the dorsal skin of the mice was shaved, and abrasions were produced in a 1×1 cm^2 area using a blade. These abrasion wounds damaged only the stratum corneum and upper layer of the epidermis, but not the dermis. Five minutes later, the wounds were inoculated with 20 µl of S. aureus (10^7–10^8 CFUs) using a micropipettor. A group of mice was killed 4 h after infection to control for the infectious dose. Four hours after infection, the wounds of the other mice were smeared with 20 µl of 5 mg/mL gel or a placebo gel, which was used as a negative control. The treatment lasted for 4 days, with two peptide gel applications being performed daily (morning and evening at 8 h intervals). After 4 days of treatment, the mice were killed, and the wound area of the skin was immediately excised and homogenized. Suitable dilutions of the homogenates were plated on LB plates to determine the number of living bacteria (CFUs).
After the animals were euthanized, biopsy specimens of the excised wound area of the skin were collected and immediately fixed in phosphate-buffered formalin (10%, pH = 7.4). Then, the biopsy specimens were embedded in paraffin and stained with hematoxylin and eosin.
In each experiment, the mean CFU was calculated using log10-transformed data. Based on the averages of three experiments, the mean, range, and coefficient of variation were calculated.

Substance FIGAIARLLSKIF-NH2 [BmKn2] has an MIC [1] of 12.5 µg/mL, an MIC [2] of 6.25 µg/mL and an MIC [3] of 12.5 µg/mL. For the same substance, the MIC [4] was 12.5 µg/mL, the MIC [5] was 12.5 µg/mL and the MIC [6] was 12.5 µg/mL. For the same substance, the MIC [7] was 12.5 µg/mL, the MIC [8] was 6.25 µg/mL and the “HC50 (hemolytic activity)” value [9] was 17.13 µg/mL.
In the case of FIKRIARLLRKIF [Kn2-7], the “MIC E.coli, substance alone” value [10] is reported as 6.25 µg/mL, the “Cutaneous viable counts (colony counts) of S. aureus” value ([11]; female BALB/c mice, cyclophosphamide-pretreated, skin abrasion, 10^7–10^8 CFUs, topical 20 µl of 5 mg/mL gel (0.5% hydroxypropylcellulose) twice daily for 4 days, eight mice per group, versus placebo-treated and untreated mice) is reported as “clearly lower” and the “Histological morphology of the skin sections, four days after infection” value ([11]; hematoxylin and eosin, topical 5 mg/mL gel twice daily for 4 days, untreated and placebo groups lost nearly all epidermis) is reported as “recovered almost fully”. The “Appearance of the infected skin, four days after infection” value ([11]; topical 5 mg/mL gel twice daily for 4 days, placebo blisters became larger) was “healed” and the “Appearance of the infected skin, one day after infection” value ([11]; topical 5 mg/mL gel twice daily, placebo skin wet with blistering) was “scabbed over”.
